In patent publication US3961075A, “Ether-linked quaternary ammonium compositions” (Colgate-Palmolive Company, priority 1975, dated 1976):

Key:
Format in all cases: cell-based
P. ovale = assay: standard test tube serial dilution test, P. ovale; settings: broth serial dilution, read-out: Minimum Inhibitory Concentration
Protocol: (§1) The anti-microbial nature of the instant novel compounds was shown by a standard test tube serial dilution test in which an appropriate number of test tubes of broth containing decreasing concentrations of the test agent was innoculated with the test organism. After a suitable period of incubation, the tubes were examined for the presence or absence of growth. The activity of the test agent was the lowest concentration which inhibited the growth of the organism and is expressed as the minimal inhibitory concentration in ug/ml.

Ps. aeruginosa = assay: standard test tube serial dilution test, Ps. aeruginosa; settings: Pseudomonas aeruginosa, broth serial dilution, read-out: Minimum Inhibitory Concentration
Protocol: as §1

C. albicans = assay: standard test tube serial dilution test, C. albicans; settings: Candida albicans, broth serial dilution, read-out: Minimum Inhibitory Concentration
Protocol: as §1

S. aureus = assay: standard test tube serial dilution test, S. aureus; settings: Staphylococcus aureus, broth serial dilution, read-out: Minimum Inhibitory Concentration
Protocol: as §1

Str. mitis = assay: standard test tube serial dilution test, Str. mitis; settings: Streptococcus mitis, broth serial dilution, read-out: Minimum Inhibitory Concentration
Protocol: as §1

T. mentagrophytes = assay: standard test tube serial dilution test, T. mentagrophytes; settings: Trichophyton mentagrophytes, broth serial dilution, read-out: Minimum Inhibitory Concentration
Protocol: as §1

A. niger = assay: standard test tube serial dilution test, A. niger; settings: Aspergillus niger, broth serial dilution, read-out: Minimum Inhibitory Concentration
Protocol: as §1

E. coli = assay: standard test tube serial dilution test, E. coli; settings: Escherichia coli, broth serial dilution, read-out: Minimum Inhibitory Concentration
Protocol: as §1

| Compound | MIC (P. ovale) [µg/mL] | MIC (Ps. aeruginosa) [µg/mL] | MIC (C. albicans) [µg/mL] | MIC (S. aureus) [µg/mL] | MIC (Str. mitis) [µg/mL] | MIC (T. mentagrophytes) [µg/mL] | MIC (A. niger) [µg/mL] | MIC (E. coli) [µg/mL] |
| --- | --- | --- | --- | --- | --- | --- | --- | --- |
| CCCCCCCCCCCC[N+](C)(C)CCOC12CC3CC(CC(C3)C1)C2 [C12 H25, 2-(1^1-adamantyloxy)ethyldimethyldodecyl ammonium bromide] | > 50 | > 25 | 1.56 | 0.39 | 0.19 | 3.12 | 50 | 12.5 |
| CCCCCCCCCCCCCC[N+](C)(C)CCOC12CC3CC(CC(C3)C1)C2 [C14 H29, 2(1^1 -adamantyloxy)ethyldimethyltetradecylammonium bromide] | > 50 | > 25 | 1.56 | 0.78 | 0.39 | 6.25 | 50 | 12.5 |
